From publication PMC7916974 (Viruses, 2021)
Read-outs that look alike come from different tables or passages of the source.

Legend:
A/Weiss/43 H1N1 [1] = experiment: Infected mouse model: lung index, symptoms; format: in vivo, BALB/c mice; conditions: for clinical symptoms of infected mice: intragastric once a day for six days
[2] = test system: A549 cells infected with A/Weiss/43 H1N1; format: cell-based; conditions: 24 h
[3] = Cytotoxicity assay (MTT), MDCK cells; format: cell-based, canine; conditions: dog; for CC50 at 72 h: MDCK cells, MTT, read-out: CC50 (50% cytotoxic concentration)
A/Weiss/43 H1N1 [4] = experiment: microbe, parasite or virus in culture; conditions: Influenza A virus, H1N1, MDCK, 72 h, read-out: EC50 (50% effective concentration)
A/Weiss/43 H1N1 [5] = format: cell-based, influenza A virus; conditions: 6.25–100 µM
[6] = test system: pro-inflammatory cytokines (TNF-α, IL-1β, IL-6, and IL-8); experiment: Cytokine mRNA in lungs of infected mice (qRT-PCR); format: in vivo, BALB/c mice; conditions: two, four and six days post-infection
in vitro = format: cell-based; conditions: human
influenza A virus [7] = format: cell-based
IAV = experiment: microbe, parasite or virus in culture; format: cell-based; conditions: Influenza A virus, ATCC2|H1N1|H3N2, MDCK, read-out: EC50 values (range over IAV strains)
A/Weiss/43 H1N1 [8] = format: cell-based, influenza A virus
[9] = test system: A549 cells infected with A/Weiss/43 H1N1; format: cell-based; conditions: 24 h post-infection
influenza A virus [10] = format: cell-based; remark: listed apart in the source
A/Weiss/43 H1N1 [11] = test system: A/Weiss/43 H1N1
[12] = test system: A/Virginia/ATCC2/2009 H1N1; experiment: microbe, parasite or virus in culture; format: cell-based; conditions: Influenza A virus, MDCK, 72 h
A/Weiss/43 H1N1 [13] = experiment: Viral NP mRNA in lungs of infected mice (qRT-PCR); format: in vivo, BALB/c mice; conditions: two, four and six days post-infection
A/California/2/2014 H3N2 = experiment: microbe, parasite or virus in culture; format: cell-based; conditions: Influenza A virus, H3N2, MDCK, 72 h
[14] = test system: A/Weiss/43 H1N1-induced apoptosis in A549 cells; format: cell-based; conditions: 24 h post-infection
[15] = 50 mg/kg/d intragastric, six days post infection
[16] = 100 mg/kg/d intragastric, six days post infection

## COC1=C(c2ccc(Cl)cc2)C(=O)OC1(C)COS(=O)(=O)Cc1ccccc1 (stereo not shown) [Compound 3D]
A/Weiss/43 H1N1 [1]; 25 mg/kg/d intragastric, six days post infection
  Inhibition ratio of lung index: 11.35%
A/Weiss/43 H1N1 [1]; 25 mg/kg/d intragastric, six days post infection (virus control 1.70 ± 0.06)
  Lung Index: 1.51 ± 0.06
A/Weiss/43 H1N1 [1]; [15]
  Inhibition ratio of lung index: 28.47%
  Lung Index: 1.22 ± 0.09
A/Weiss/43 H1N1 [1]; [16]
  Inhibition ratio of lung index: 33.21%
  Lung Index: 1.14 ± 0.05
A/Weiss/43 H1N1 [1]
  clinical symptoms of infected mice: relieve these symptoms
A/Weiss/43 H1N1 [1]; six days post infection
  lung indexes versus virus control group (in words): significantly lower than those in the virus control group
[2]; 30, 50, 80 µM
  expression of influenza M2 protein: inhibited
[2]; A549 cells
  IAV-induced upregulation of Bax/Bcl-2: reduced this upregulation
[3]
  viability at 72 h, 800 µM: ~40%
  CC50 at 72 h: 365 ± 1.58 µM
A/Weiss/43 H1N1 [4]
  EC50: 12.3 ± 0.53 µM
A/Weiss/43 H1N1 [5]
  levels of NP mRNA in IAV-infected MDCK cells: decrease in the levels of NP mRNA
[6]
  expressions of pro-inflammatory cytokines in mouse lungs: inhibit the increased expressions of pro-inflammatory cytokines
In vitro
  CC50 at 72 h: 309 ± 9.96 µM
  viability at 72 h, 800 µM: ~40%
Influenza A virus [7]
  levels of NP mRNA, time-of-addition: significantly suppressed
IAV
  EC50: 12.3 to 24.1 µM
A/Weiss/43 H1N1 [8]
  virus titers of A549 cells: significantly decreased
[9]
  mRNA expression of RIG-I, MAVS, TLR3, IRF3, IRF7: levels decreased
[9]; dose-dependent
  mRNA expression of cytokines and chemokines (IL-1β, IL-6, IL-8, TNF-α): significantly decreased
Influenza A virus [10]
  inhibitory effect on viral replication, added before viral adsorption: almost no inhibitory effects
  inhibitory effect, added during viral inoculation: slight inhibitory effect
  protective effect, added after viral adsorption: significant protective effect
A/Weiss/43 H1N1 [11]
  SI (ratio of CC50 to EC50): 29.68
  antiviral activity against A/Weiss/43 H1N1 (in words): presented the antiviral activity
[12]
  EC50: 18.1 ± 2.6 µM
A/Weiss/43 H1N1 [13]
  expression of viral NP mRNA in IAV infected lungs: decreased the expression of viral NP mRNA in a dose-dependent manner
A/California/2/2014 H3N2
  EC50: 24.1 ± 1.16 µM
[14]; 30 µM, infected A549 cells (virus control 32.85 ± 3.05%)
  apoptosis rate: 21.93 ± 0.97%
[14]; 50 µM, infected A549 cells
  apoptosis rate: 15.17 ± 2.87%
[14]; 80 µM, infected A549 cells
  apoptosis rate: 7.23 ± 1.30%

## CCOC(=O)C1=C[C@@H](OC(CC)CC)[C@H](NC(C)=O)[C@@H](N)C1 [Oseltamivir, reference compound]
A/Weiss/43 H1N1 [1]; [15]
  Inhibition ratio of lung index: 35.99%
  Lung Index: 1.09 ± 0.12
A/Weiss/43 H1N1 [1]
  clinical symptoms of infected mice: relieve these symptoms
A/Weiss/43 H1N1 [1]; six days post infection
  lung indexes versus virus control group (in words): significantly lower than those in the virus control group
[3]
  CC50 at 72 h: > 800 µM
A/Weiss/43 H1N1 [4]
  EC50: 0.57 ± 0.29 µM
[6]
  expressions of pro-inflammatory cytokines in mouse lungs: inhibit the increased expressions of pro-inflammatory cytokines
A/Weiss/43 H1N1 [11]
  SI (ratio of CC50 to EC50): >1403.51
[12]
  EC50: 6.97 ± 0.38 µM
A/California/2/2014 H3N2
  EC50: 9.47 ± 2.48 µM

## NC(=O)c1ncn([C@@H]2O[C@H](CO)[C@@H](O)[C@H]2O)n1 [Ribavirin]
A/Weiss/43 H1N1 [1]
  clinical symptoms of infected mice: relieve these symptoms
[3]
  CC50 at 72 h: 608 ± 34 µM
A/Weiss/43 H1N1 [4]
  EC50: 22.2 ± 0.76 µM
[6]
  expressions of pro-inflammatory cytokines in mouse lungs: inhibit the increased expressions of pro-inflammatory cytokines
[12]
  EC50: 13.9 ± 1.06 µM
A/California/2/2014 H3N2
  EC50: 13 ± 3.74 µM
